What was measured:
[1] = tested on: ApoB in Hep3B cells; experiment: In vitro gene silencing activity, formulation with UsiRNA against ApoB in Hep3B cells, quantitative RT-PCR; assay type: cell-based; conditions: UsiRNA DX10008, Hep3B, 24 h
Procedure: The methodology for determining the in vitro gene silencing activity of an activity-generating delivery molecule was as follows: Hep3B cells were transfected in triplicate, 96-well format with a formulation of the activity-generating delivery molecule and a UsiRNA against ApoB. After 24 h, cellular RNA was prepared and evaluated by quantitative RT-PCR for target ApoB and the normalizer 36B4 or GAPDH expression levels.
The in vitro activity was generated with a UsiRNA against ApoB in Hep3B cells.

[2] = TNS dye assay for pKa; assay type: physicochemical; conditions: pH 3.0 to 11.0, 30 min at 37° C.; for pKa as measured by TNS dye assay: liposome test sample; for pKa: liposomes of the lipid with TNS dye in universal buffer, pH 3, liposome test sample, read-out: pKa as measured by TNS dye assay
Procedure: To measure pH responsive fluorescence, a TNS/Liposome reaction mixture was prepared as follows: 16 μL of TNS at 1 mg/mL (dissolved in 20% DMF), 160 μL of liposome test sample at 1 mM and 3824 μL of H20. Briefly, in a Costar 96 well plate; 100 μL/well of 2× universal buffer was added (50 mM Citrate; 40 mM sodium phosphate; 40 mM ammonium acetate; 300 mM NaCl, the 2× buffer was titrated to different pHs, at 0.5 pH increments from pH 3.0 to pH 11.0 using NaOH or HCl). To each well containing the 100 of universal buffer, 100 μL of the TNS/Liposome reaction mixture is then added to achieve a final volume of 200 μL, a TNS concentration of 5.92 μM and a final lipid concentration of 20 μM per well. After 30 min at 37° C. the fluorescence was read at an excitation wavelength of 322 nm and emission wavelength of 431 nm. The pKa was determined at the pH corresponding to the midpoint between the maximum and the minimum fluorescence intensity, utilizing sigmoidal fit software.
TNS dye (2,6-TNS (2-(p-toluidinyl)naphthalene-6-sulfonic acid, sodium salt; Invitrogen T53; MW 335.4).

[3] = DSC measurement of 2nd melting behavior; assay type: physicochemical; conditions: heat/cool/heat cycle
Procedure: The 2nd melting behavior of activity-generating delivery molecules was assessed on a TA Instruments Q200 Differential Scanning calorimeter in a heat/cool/heat cycle by weighing 0.5 to 1.5 mg of the powder into an aluminum pan and heating to 175° C. at 20° C./min., cooling to −50° C. at 10° C./min., and heating to 200° C. at 20° C./min.
Without intending to be bound by any particular theory, the melting behavior of an activity-generating delivery molecule may relate to its ability to form lamellar, bilayer, or other ordered structures which can be useful for carrying an active agent to interact with, and enter a cellular compartment to generate pharmacological or biological activity. […] A substance having less ordered structures may provide greater membrane fusion ability which can be needed for delivery of the active agent to a cell. Thus, differential scanning calorimetry can be used to distinguish the properties of compounds with certain significant thermotropic phases or transitions from compounds with different properties and less significant thermotropic phases or transitions.

[4] = tested on: Factor VII; experiment: In vivo gene-silencing dose-response, UsiRNA against Factor VII in formulation, tail-vein injection; parameters: species or system mouse; conditions: normal Balb/c mice, single tail-vein IV injection, serum F-VII at 48 hr post dose; dose as active UsiRNA per kg; formulated with cholesterol, C18:2-DAB-C16, DSPE-PEG2k 51:31:17:1 mole %
Procedure: In FIG. 1 is shown a chart of the gene-silencing dose-response in vivo mouse for a UsiRNA against Factor VII administered by tail-vein injection in a formulation including the activity-generating delivery molecule C18:2-DAP(N,N-diMe)-C18:2. The calculated ED50 was 30 μg/kg. The x-axis of FIG. 1 refers to mgA/kg which is by pharmaceutical convention the mg of active UsiRNA per kg body weight. Here it refers to the fraction of UsiRNA that is duplexed, and encapsulated or carried by the activity-generating delivery molecules.
Animals were each administered a single tail-vein IV injection, and sacrificed at 48 hr post dose for analysis of serum F-VII.
The activity-generating molecule C18:2-DAP(N,N-diMe)-C18:2 was formulated with cholesterol, a second activity-generating molecule C18:2-DAB-C16, and DSPE-PEG2k at concentrations of 51:31:17:1 mole %, respectively.

[5] = tested on: Factor VII mRNA; experiment: In vivo gene knockdown in Balb/c mice, tail-vein injection of formulation with UsiRNA; parameters: species or system mouse; conditions: DMPE-PEG2k 2 mole %, UsiRNA against Factor VII mRNA
Source text: In vivo gene knockdown activity was generated in Balb/c mice administered by tail-vein injection with a formulation including the activity-generating delivery molecule and a UsiRNA against Factor VII mRNA.

[6] = delivery molecule 25.00 mole %, CHOL 75.00 mole %
[7] = delivery molecule 25.00 mole %, DOPE 75.00 mole %
[8] = delivery molecule 33.33 mole %, CHOL 66.66 mole %
[9] = delivery molecule 33.33 mole %, DOPE 66.66 mole %
[10] = delivery molecule 50.00 mole %, CHOL 50.00 mole %
[11] = delivery molecule 50.00 mole %, DOPE 50.00 mole %
[12] = delivery molecule 66.66 mole %, CHOL 33.33 mole %
[13] = delivery molecule 66.66 mole %, DOPE 33.33 mole %
[14] = delivery molecule 75.00 mole %, CHOL 25.00 mole %
[15] = delivery molecule 75.00 mole %, DOPE 25.00 mole %

pKa as measured by TNS dye assay [2]	pKa [2]	Structure (SMILES)	In vitro Gene Knockdown % [1, 6] [%]	In vitro Gene Knockdown % [1, 7] [%]	In vitro Gene Knockdown % [1, 8] [%]	In vitro Gene Knockdown % [1, 9] [%]	In vitro Gene Knockdown % [1, 10] [%]	In vitro Gene Knockdown % [1, 11] [%]	In vitro Gene Knockdown % [1, 12] [%]	In vitro Gene Knockdown % [1, 13] [%]	In vitro Gene Knockdown % [1, 14] [%]	In vitro Gene Knockdown % [1, 15] [%]	2nd melting behavior, thermal transitions by differential scanning calorimetry [3]	calculated ED50, gene silencing in vivo [4] [mg/kg]	In vivo Gene Knockdown % ([5]; delivery molecule 49 mole %, CHOL 49 mole %) [%]	In vivo Gene Knockdown % ([5]; delivery molecule 65.3 mole %, CHOL 32.7 mole %) [%]
5.3		CCCCCC=CCC=CCCCCCCCC(=O)NC(CN(C)C)C(=O)NCCCCCCCCC=CCCCCCCCC (stereo not drawn) [C18:2-DAP(Me,Me)-C18:1]	90	86	91	87	88	84	91	85		84				
	4.9	CCCCC/C=C\C/C=C\CCCCCCCCNC(=O)C(N)NC(=O)CCCCCCC/C=C\C/C=C\CCCCC (stereo not drawn) [C18:2-DAA-C18:2, (9Z,12Z)—N-(1-amino-2-((9Z,12Z)-octadeca-9,12-dien-1-ylamino)-2-oxoethyl) octadeca-9,12-dienamide]														
	7.6	CCCCC/C=C\C/C=C\CCCCCCCCNC(=O)C(CN)NC(=O)CCCCCCC/C=C\C/C=C\CCCCC (stereo not drawn) [C18:2-DAP-C18:2, (9Z,12Z)—N-(3-amino-1-((9Z,12Z)-octadeca-9,12-dien-1-ylamino)-1-oxopropan-2-yl)octadeca-9,12-dienamide]														
6.6		CCCCC/C=C\C/C=C\CCCCCCCCNC(=O)C1CC(N(C)C)CN1C(=O)CCCCCCC/C=C\C/C=C\CCCCC (stereo not drawn) [C18:2-aminoPro(N—Me,N—Me)-C18:2]	79	66	72	74	62	82	53	73	59	68			68	48

Second part, the compound before the results:

Structure (SMILES)	pKa as measured by TNS dye assay [2]	pKa [2]	In vitro Gene Knockdown % [1, 6] [%]	In vitro Gene Knockdown % [1, 7] [%]	In vitro Gene Knockdown % [1, 8] [%]	In vitro Gene Knockdown % [1, 9] [%]	In vitro Gene Knockdown % [1, 10] [%]	In vitro Gene Knockdown % [1, 11] [%]	In vitro Gene Knockdown % [1, 12] [%]	In vitro Gene Knockdown % [1, 13] [%]	In vitro Gene Knockdown % [1, 14] [%]	In vitro Gene Knockdown % [1, 15] [%]	2nd melting behavior, thermal transitions by differential scanning calorimetry [3]	calculated ED50, gene silencing in vivo [4] [mg/kg]	In vivo Gene Knockdown % ([5]; delivery molecule 49 mole %, CHOL 49 mole %) [%]	In vivo Gene Knockdown % ([5]; delivery molecule 65.3 mole %, CHOL 32.7 mole %) [%]
CCCCC/C=C\C/C=C\CCCCCCCC(=O)NC(CN)C(=O)NCCCCCCCC/C=C\CCCCCCCC (stereo not drawn) [C18:2-Dap(NH3 + Cl—)-C18:1, (9Z,12Z)—N-(3-amino-1-((Z)-octadec-9-en-1-ylamino)-1-oxopropan-2-yl)octadeca-9,12-dienamide]			64	85	62	83	56	83	61	69	52	48				
CCCCCCCCCCCCCCCCCCNC(=O)C(CCNC(=N)N)NC(=O)CCCCCCCCCCCCCCCCC (stereo not drawn) [CH3(CH2)16(CO)-norArg-NH(CH2)17CH3, reference compound]													presence of significant thermal or melting transitions			
CCCCC/C=C\C/C=C\CCCCCCCCNC(=O)C(CN(C)C)NC(=O)CCCCCCC/C=C\C/C=C\CCCCC (stereo not drawn)		5.8	6			86	19	87	19	81		18		0.03		
CCCCC/C=C\C/C=C\CCCCCCCCNC(=O)C(CCN)NC(=O)CCCCCCC/C=C\C/C=C\CCCCC (stereo not drawn) [C(18:2)oleoyl-DAB-C(18:2)alkenylamino, (9Z,12Z)—N-(4-amino-1-((9Z,12Z)-octadcca-9,12-dien-1-ylamino)-1-oxobutan-2-yl) octadeca-9,12-dienamide]													complete lack of thermal transition peaks			
CCCCCCCC/C=C\CCCCCCCCNC(=O)C(CN)NC(=O)CCCCCCC/C=C\CCCCCCCC (stereo not drawn) [C18:1-DAP(NH3 + Cl—)-C18:1, N-(3-amino-1-((Z)-octadec-9-en-1-ylamino)-1-oxopropan-2-yl)oleamide]		6	83	81	80	83	73	82	76	72	79	77				

From patent US20150073038A1 (Marina Biotech, Inc., priority 2009, published 2015)
